Reference: patent US20230117034A1, “PYRAZOLOTRIAZINES” (Bayer Aktiengesellschaft, priority 2019, published 2023)

Tests used:
[1] = molecular target: T1, CDK9/CycT1 (Homo sapiens, UniProt P50750); experiment: CDK9/CycT1 high ATP kinase assay (TR-FRET, 2 mM ATP); type: biochemical; settings: 2 mM ATP (high ATP); median; read-out: CDK9/CyclinT1, 2 mM ATP (high ATP), IC50 (median)
T1 construct: Recombinant full-length His-tagged human CDK9 and CycT1; purchased Life Technologies PV4131; host or cells: insect cells
T1 sequence (P50750 whole entry): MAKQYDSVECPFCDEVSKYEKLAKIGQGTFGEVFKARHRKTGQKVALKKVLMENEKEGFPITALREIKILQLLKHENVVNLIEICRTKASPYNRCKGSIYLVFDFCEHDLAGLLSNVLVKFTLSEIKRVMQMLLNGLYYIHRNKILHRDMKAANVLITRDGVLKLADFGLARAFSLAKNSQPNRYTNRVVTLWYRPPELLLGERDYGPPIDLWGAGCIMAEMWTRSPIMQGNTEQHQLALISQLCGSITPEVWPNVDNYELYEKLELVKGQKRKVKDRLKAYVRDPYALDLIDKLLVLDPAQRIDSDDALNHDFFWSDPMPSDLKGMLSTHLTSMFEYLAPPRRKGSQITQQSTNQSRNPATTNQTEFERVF
T1 sequence (O60563 whole entry partner): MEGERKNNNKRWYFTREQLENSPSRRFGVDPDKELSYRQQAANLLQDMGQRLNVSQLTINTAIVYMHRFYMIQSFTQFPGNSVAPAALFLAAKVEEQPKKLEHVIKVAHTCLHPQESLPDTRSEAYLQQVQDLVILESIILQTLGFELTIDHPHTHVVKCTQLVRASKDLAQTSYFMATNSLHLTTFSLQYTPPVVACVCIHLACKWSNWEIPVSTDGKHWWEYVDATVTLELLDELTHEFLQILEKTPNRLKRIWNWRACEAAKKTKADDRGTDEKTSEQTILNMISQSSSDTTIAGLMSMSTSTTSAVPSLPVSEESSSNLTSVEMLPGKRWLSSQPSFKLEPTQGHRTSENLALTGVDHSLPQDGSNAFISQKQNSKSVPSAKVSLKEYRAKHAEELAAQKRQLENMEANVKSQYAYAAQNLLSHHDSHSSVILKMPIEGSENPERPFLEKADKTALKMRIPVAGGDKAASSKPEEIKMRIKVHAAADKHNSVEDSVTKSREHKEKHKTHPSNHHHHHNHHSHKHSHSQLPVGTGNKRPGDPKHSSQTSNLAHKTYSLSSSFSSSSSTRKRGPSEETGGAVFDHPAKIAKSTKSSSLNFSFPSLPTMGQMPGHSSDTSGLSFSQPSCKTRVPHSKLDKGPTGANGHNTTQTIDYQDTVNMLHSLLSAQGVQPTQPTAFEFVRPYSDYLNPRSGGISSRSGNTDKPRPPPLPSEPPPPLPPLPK
How it was run: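 Full-length His-tagged human CDK9/CycT1 (insect cell, ~0.5 μg/mL) preincubated 15 min at 22 °C with compound in Tris pH 8.0, MgCl2, DTT buffer before reaction with biotinylated peptide substrate at high ATP (2 mM).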

[2] = molecular target: T2, CYCLIN K (nuclear staining in CAL-120 cells) (Homo sapiens, UniProt O75909); experiment: CYCLIN K nuclear protein level: immunofluorescence high content analysis (CAL-120); type: cell-based; settings: 24 h, 50% reduction of nuclear CCNK staining intensity, median, read-out: CYCLIN K degradation IF, DC50-[mol/l] (median)
T2 construct: endogenous in cells; host or cells: CAL-120 human breast cancer cells (DSMZ ACC 459)
T2 sequence (O75909 whole entry): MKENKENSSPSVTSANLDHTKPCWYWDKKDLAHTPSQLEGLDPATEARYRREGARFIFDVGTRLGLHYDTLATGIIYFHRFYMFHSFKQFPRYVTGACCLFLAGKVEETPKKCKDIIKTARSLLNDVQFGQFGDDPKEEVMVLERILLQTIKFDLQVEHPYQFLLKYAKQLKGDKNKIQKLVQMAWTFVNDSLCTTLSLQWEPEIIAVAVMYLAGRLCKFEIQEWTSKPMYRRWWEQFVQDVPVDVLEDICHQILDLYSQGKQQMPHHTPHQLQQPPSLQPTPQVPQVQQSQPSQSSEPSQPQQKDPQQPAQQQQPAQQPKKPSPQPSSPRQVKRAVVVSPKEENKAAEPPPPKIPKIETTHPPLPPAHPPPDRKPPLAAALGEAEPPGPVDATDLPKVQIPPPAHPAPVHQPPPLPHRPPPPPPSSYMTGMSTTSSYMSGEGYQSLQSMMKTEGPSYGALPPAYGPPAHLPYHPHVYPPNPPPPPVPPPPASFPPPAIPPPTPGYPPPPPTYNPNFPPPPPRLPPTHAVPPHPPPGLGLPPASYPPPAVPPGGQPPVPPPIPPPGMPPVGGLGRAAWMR
T2 sequence (Q9NYV4 whole entry partner): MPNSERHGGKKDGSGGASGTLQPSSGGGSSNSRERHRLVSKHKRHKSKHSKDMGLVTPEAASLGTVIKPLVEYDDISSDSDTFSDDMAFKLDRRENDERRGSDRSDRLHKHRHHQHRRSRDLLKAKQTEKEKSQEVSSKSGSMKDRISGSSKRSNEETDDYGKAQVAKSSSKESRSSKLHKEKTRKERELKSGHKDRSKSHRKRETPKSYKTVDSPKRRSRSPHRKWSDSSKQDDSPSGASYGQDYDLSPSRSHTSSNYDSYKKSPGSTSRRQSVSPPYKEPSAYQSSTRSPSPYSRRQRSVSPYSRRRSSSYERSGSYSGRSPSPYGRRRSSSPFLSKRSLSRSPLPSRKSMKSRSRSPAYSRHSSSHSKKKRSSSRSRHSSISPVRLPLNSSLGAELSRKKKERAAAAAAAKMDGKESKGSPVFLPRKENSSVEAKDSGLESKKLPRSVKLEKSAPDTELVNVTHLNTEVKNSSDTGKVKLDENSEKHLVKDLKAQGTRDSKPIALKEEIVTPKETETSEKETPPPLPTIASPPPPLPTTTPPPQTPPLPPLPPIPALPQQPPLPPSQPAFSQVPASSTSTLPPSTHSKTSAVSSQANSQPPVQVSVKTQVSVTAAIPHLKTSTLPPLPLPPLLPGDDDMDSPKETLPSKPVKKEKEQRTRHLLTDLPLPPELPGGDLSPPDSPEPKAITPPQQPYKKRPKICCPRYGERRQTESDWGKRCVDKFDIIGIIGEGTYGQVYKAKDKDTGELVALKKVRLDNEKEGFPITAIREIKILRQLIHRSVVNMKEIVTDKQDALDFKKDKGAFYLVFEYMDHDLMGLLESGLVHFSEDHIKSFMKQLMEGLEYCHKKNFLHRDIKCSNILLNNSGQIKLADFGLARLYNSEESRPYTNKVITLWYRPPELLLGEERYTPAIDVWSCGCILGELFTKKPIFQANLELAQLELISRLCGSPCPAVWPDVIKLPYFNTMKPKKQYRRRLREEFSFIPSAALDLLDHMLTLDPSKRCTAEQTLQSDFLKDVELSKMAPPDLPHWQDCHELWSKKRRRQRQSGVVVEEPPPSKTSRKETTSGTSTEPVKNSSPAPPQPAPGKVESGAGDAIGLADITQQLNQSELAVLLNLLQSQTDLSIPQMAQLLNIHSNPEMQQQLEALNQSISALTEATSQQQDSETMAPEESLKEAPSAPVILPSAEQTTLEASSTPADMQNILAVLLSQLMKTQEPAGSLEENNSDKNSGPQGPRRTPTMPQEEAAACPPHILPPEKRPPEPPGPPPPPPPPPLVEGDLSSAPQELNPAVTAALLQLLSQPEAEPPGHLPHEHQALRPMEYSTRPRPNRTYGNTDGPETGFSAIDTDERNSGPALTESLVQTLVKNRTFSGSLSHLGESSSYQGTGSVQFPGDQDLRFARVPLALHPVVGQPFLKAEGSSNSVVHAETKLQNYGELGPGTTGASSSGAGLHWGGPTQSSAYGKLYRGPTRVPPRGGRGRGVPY
How it was run: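 Readout is automated confocal image analysis of nuclear cyclin K immunofluorescence (Hoechst nuclei) after PFA fixation. Cells were CAL-120, exposed to compound dose-response 24 h at 37 °C; values are DC50 for halving nuclear CCNK signal relative to DMSO and control wells.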

[3] = test system: MDA-MB-231, human breast cancer cells; experiment: Proliferation assay MDA-MB-231 (crystal violet, 4 days); type: cell-based; settings: Homo sapiens, MDA-MB-231, 96 h, MDA-MB-231 cells, median, read-out: Prolif-MDA MB-231, IC50-[mol/l] (median)
How it was run: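 Crystal violet proliferation read-out after 4 days of compound exposure (0.01-10 µmol/L; solvent 0.1% DMSO). Extinction at 595 nm, set between zero-point (0%) and vehicle (100%), fitted with 4 parameters to give IC50.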

[4] = molecular target: T3, CDK12 (nuclear staining in CAL-120 cells) (Homo sapiens, UniProt Q9NYV4); experiment: CDK12 nuclear protein level: immunofluorescence/high content analysis (CAL-120); type: cell-based; settings: for DC50: CAL-120 cells, 24 h, immunofluorescence, 50% reduction of nuclear CDK12 staining intensity, median, read-out: CDK12 degradation IF, DC50- [mol/l] (median); for (IC50 CDK12 high ATP) to (Degradation DC50 CDK12) ratio: ratio of IC50 CDK12 high ATP kinase assay to DC50 CDK12 degradation (IF, CAL-120)
T3 construct: endogenous in cells; host or cells: CAL-120 human breast cancer cells (DSMZ ACC 459)
T3 sequence (Q9NYV4 whole entry): as the sequence (Q9NYV4 whole entry partner) above
T3 sequence (O75909 whole entry partner): as the sequence (O75909 whole entry) above
How it was run: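 DC50 is the degrader concentration that halves nuclear CDK12 immunofluorescence relative to controls, measured by high-content imaging. CAL-120 cells were exposed to compound for 24 h at 37 °C before PFA fixation, and signal was normalized to DMSO and control wells.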

SMILES | IC50 [1] [nM] | DC50 [2] [nM] | IC50 [3] [nM] | DC50 [4] [nM] | (IC50 CDK12 high ATP) to (Degradation DC50 CDK12) ratio [4]
Fc1ccc2[nH]c(CNc3nc(N4CCN5CCC4CC5)nc4c(C(F)(F)F)cnn34)nc2c1F [Example 407, 2-(1,4-diazabicyclo[3.2.2]nonan-4-yl)-N-[(4,5-difluoro-1H-benzimidazol-2-yl)methyl]-8-(trifluoromethyl)pyrazolo[1,5-a][1,3,5]triazin-4-amine] | > 20000 | 0.643 | 2.28 | 2.31 | 306
CCc1cnn2c(NCc3nc4ccccc4[nH]3)nc(N3CCN(C)CC3)nc12 [Example 434, N-[(1H-benzimidazol-2-yl)methyl]-8-ethyl-2-(4-methylpiperazin-1-yl)pyrazolo[1,5-a][1,3,5] triazin-4-amine] | > 20000 | 2.06 | 44.7 | 5 | >3530
CN1CCN(c2nc(NCc3nc4c(F)c(F)ccc4[nH]3)n3ncc(C4CC4(F)F)c3n2)CC1 (centres unmarked) [Example 429, N-[(4,5-difluoro-1H-benzimidazol-2-yl)methyl]-8-(2,2-difluorocyclopropyl)-2-(4-methylpiperazin-1-yl)pyrazolo[1,5-a][1,3,5]triazin-4-amine] | > 20000 | 3.86 | 32.4 | 4.32 | >4626
O=C(O)C(F)(F)F.c1ccc2[nH]c(CNc3nc(N4CCOCC4)nc4c(-c5cncs5)cnn34)nc2c1 [Example 441, trifluoroacetic acid-N-[(1H-benzimidazol-2-yl)methyl]-2-(morpholin-4-yl)-8-(1,3-thiazol-5-yl)pyrazolo[1,5-a][1,3,5]triazin-4-amine (1/1)] | > 20000 | 2.25 | 28.5 | 6.18 | 676
CCc1cnn2c(NCc3nc4c(OC)cccc4[nH]3)nc(N3CCOCC3)nc12 [Example 433, 8-ethyl-N-[(4-methoxy-1H-benzimidazol-2-yl)methyl]-2-(morpholin-4-yl)pyrazolo[1,5-a][1,3,5]triazin-4-amine] | > 20000 | 0.441 | 40.3 | 4.32 | 626
Clc1cc2nc(CNc3nc(N4CCOCC4)nc4c(-c5cncs5)cnn34)[nH]c2cc1Cl [Example 443, N-[(5,6-dichloro-1H-benzimidazol-2-yl)methyl]-2-(morpholin-4-yl)-8-(1,3-thiazol-5-yl)pyrazolo[1,5-a][1,3,5]triazin-4-amine] | > 20000 | 2.22 | 6.17 | 4.23 | 941
CN(CC(C)(C)O)c1nc(NCc2nc3c(F)c(F)ccc3[nH]2)n2ncc(C(F)(F)F)c2n1 [Example 402, 1-{[4-{[(4,5-difluoro-1H-benzimidazol-2-yl)methyl]amino}-8-(trifluoromethyl)pyrazolo[1,5-a][1,3,5]triazin-2-yl](methyl)amino}-2-methylpropan-2-ol] | 5400 | 1.78 | 8.56 | 7.03 | 32
FC(F)(F)c1cnn2c(NCc3nnc(-c4ccccc4)[nH]3)nc(N3CCOCC3)nc12 [Example 427, 2-(morpholin-4-yl)-N-[(5-phenyl-4H-1,2,4-triazol-3-yl)methyl]-8-(trifluoromethyl)pyrazolo[1,5-a][1,3,5]triazin-4-amine] | 4230 | 9.95 | 113 | 14.7 | 127
CN1CCN(c2nc(NCc3nc4ccccc4[nH]3)n3ncc(CC(F)(F)F)c3n2)CC1 [Example 436, N-[(1H-benzimidazol-2-yl)methyl]-2-(4-methylpiperazin-1-yl)-8-(2,2,2-trifluoroethyl)pyrazolo [1,5-a][1,3,5]triazin-4-amine] | > 20000 | 15.9 | 416 | 14.7 | >1357
Brc1cnn2c(NCc3nc4ccccc4[nH]3)nc(OC3CCNCC3)nc12 [Example 411, N-[(1H-benzimidazol-2-yl)methyl]-8-bromo-2-[(piperidin-4-yl)oxy]pyrazolo[1,5-a][1,3,5]triazin-4-amine] | > 20000 | 15.9 | 138 | 44.8 | >446
CCc1cnn2c(NCc3nc4ccccc4[nH]3)nc(N3CCOCC3)nc12 [Example 431, N-[(1H-benzimidazol-2-yl)methyl]-8-ethyl-2-(morpholin-4-yl)pyrazolo[1,5-a][1,3,5]triazin-4-amine] | > 20000 | 1.74 | 28.4 | 3.39 | 829
Cn1cc(-c2cnn3c(NCc4nc5c(F)c(F)ccc5[nH]4)nc(N4CCOCC4)nc23)cn1 [Example 418, N-[(4,5-difluoro-1H-benzimidazol-2-yl)methyl]-8-(1-methyl-1H-pyrazol-4-yl)-2-(morpholin-4-yl)pyrazolo[1,5-a][1,3,5]triazin-4-amine] | > 20000 | 2.4 | 246 | 39 | >513
FC(F)Cc1cnn2c(NCc3nc4ccccc4[nH]3)nc(N3CCOCC3)nc12.O=C(O)C(F)(F)F [Example 444, trifluoroacetic acid N-[(1H-benzimidazol-2-yl)methyl]-8-(2,2-difluoroethyl)-2-(morpholin-4-yl)pyrazolo[1,5-a][1,3,5]triazin-4-amine] | > 20000 | 5.91 | 69.1 | 7.88 | 1080
COc1ccccc1-c1nnc(CNc2nc(N3CCOCC3)nc3c(Br)cnn23)[nH]1 [Example 61, 8-bromo-N-{[5-(2-methoxyphenyl)-4H-1,2,4-triazol-3-yl]methyl}-2-(morpholin-4-yl)pyrazolo[1,5-a][1,3,5]triazin-4-amine] | > 20000 | 3.59 | 30.8 | 5.11 | >3913
Fc1cccc2[nH]c(CNc3nc(N4CCN5CCC4CC5)nc4c(C(F)(F)F)cnn34)nc12 [Example 410, 2-(1,4-diazabicyclo[3.2.2]nonan-4-yl)-N-[(4-fluoro-1H-benzimidazol-2-yl)methyl]-8-(trifluoromethyl)pyrazolo[1,5-a][1,3,5]triazin-4-amine] | > 20000 | 0.453 | 8.27 | 1.19 | 1336
N#Cc1cccc(-c2c[nH]c(CNc3nc(N4CCOCC4)nc4c(Br)cnn34)n2)c1 [Example 42, 3-[2-({[8-bromo-2-(morpholin-4-yl)pyrazolo[1,5-a][1,3,5]triazin-4-yl]amino}methyl)-1H-imidazol-4-yl]benzonitrile] | 937 | 0.587 | 5.74 | 1.25 | 324
Fc1ccc2[nH]c(CNc3nc(N4CCOCC4)nc4c(CC(F)F)cnn34)nc2c1F.O=C(O)C(F)(F)F [Example 425, trifluoroacetic acid N-[(4,5-difluoro-1H-benzimidazol-2-yl)methyl]-8-(2,2-difluoroethyl)-2-(morpholin-4-yl)pyrazolo[1,5-a][1,3,5]triazin-4-amine] | > 20000 | 0.545 | 8.76 | 2.51 | 852
Cc1cnn2c(NCc3nc4c(F)c(F)ccc4[nH]3)nc(N3CCOCC3)nc12 [Example 392, N-[(4,5-difluoro-1H-benzimidazol-2-yl)methyl]-8-methyl-2-(morpholin-4-yl)pyrazolo[1,5-a][1,3,5]triazin-4-amine] | > 20000 | 0.519 | 11.1 | 6.41 | 682
Fc1ccc2[nH]c(CNc3nc(N4CCOCC4)nc4c(-c5cncs5)cnn34)nc2c1F.O=C(O)C(F)(F)F [Example 442, trifluoroacetic acid N-[(4,5-difluoro-1H-benzimidazol-2-yl)methyl]-2-(morpholin-4-yl)-8-(1,3-thiazol-5-yl)pyrazolo[1,5-a][1,3,5]triazin-4-amine] | > 20000 | 0.385 | 6.38 | 4.68 | 125
